According to patent US7943181B2, “Natural immunostimulant compositions, methods for obtaining the same and pharmaceutical formulations thereof” (Himalaya Global Holdings Ltd., priority 2004, dated 2011):
Like-named read-outs stand apart in the source and are kept apart here.

What was measured:
[1] = system: SRBC specific immunoglobulin; experiment: Humoral response: haemagglutination antibody titre against SRBC in normal and immunocompromised rats; assay type: in vivo; conditions: Wistar rats, IMS-6 200 mg/Kg orally 14 days, SRBC ip day 10, Cyclophosphamide 400 mg/Kg ip day 12, serum day 14; control 3.278 ± 0.181
[2] = J. Chem. Soc., Pakistan, 1982; cited from earlier work
[3] = Indian J. Chem, 1989; cited from earlier work
[4] = target: snake venom Phosphodiesterase type I (Crotalus adamanteus, UniProt J3SEZ3); conditions: cited from earlier work
Chain of snake venom Phosphodiesterase type I (J3SEZ3 24-851 limits assumed): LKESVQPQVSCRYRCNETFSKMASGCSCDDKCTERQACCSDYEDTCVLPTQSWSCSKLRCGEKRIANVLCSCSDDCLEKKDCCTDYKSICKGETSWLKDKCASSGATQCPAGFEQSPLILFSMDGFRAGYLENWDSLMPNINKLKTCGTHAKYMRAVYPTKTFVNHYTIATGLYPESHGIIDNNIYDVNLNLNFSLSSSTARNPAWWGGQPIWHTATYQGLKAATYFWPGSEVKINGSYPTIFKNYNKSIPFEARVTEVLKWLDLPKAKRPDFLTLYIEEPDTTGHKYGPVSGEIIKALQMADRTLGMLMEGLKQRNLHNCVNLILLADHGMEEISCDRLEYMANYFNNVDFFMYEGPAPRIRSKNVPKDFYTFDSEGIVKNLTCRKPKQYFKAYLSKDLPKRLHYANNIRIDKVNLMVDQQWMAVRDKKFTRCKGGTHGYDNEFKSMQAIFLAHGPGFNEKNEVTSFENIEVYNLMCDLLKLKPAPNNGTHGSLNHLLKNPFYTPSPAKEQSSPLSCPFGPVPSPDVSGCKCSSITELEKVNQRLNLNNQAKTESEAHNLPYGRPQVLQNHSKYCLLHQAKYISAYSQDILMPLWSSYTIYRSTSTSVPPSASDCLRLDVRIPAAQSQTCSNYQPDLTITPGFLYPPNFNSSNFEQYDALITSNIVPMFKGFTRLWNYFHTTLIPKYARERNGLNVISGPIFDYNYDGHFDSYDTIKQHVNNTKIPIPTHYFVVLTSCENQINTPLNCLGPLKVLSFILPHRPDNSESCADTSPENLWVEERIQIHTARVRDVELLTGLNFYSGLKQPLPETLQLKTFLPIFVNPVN

[5] = system: ACD sensitized L929 cells; experiment: Assay for immunostimulatory effects: proinflammatory cytokine induced cell death after transfer of RAW 264.7 supernatant; assay type: cell-based, mouse; conditions: Table 4, extract 200 μg/ml, LPS 1 μg/ml, control 0
Experimental: The extracts […] to […] and SR-1 to SR-11 were subjected to biological screening in Mouse macrophage (RAW 264.7) cell and fibroblast (L929) cells for in vitro immunomodulatory activity. Following the treatment with sub toxic levels of the extract the percent death in the ACD sensitised cells was taken as end point.
The stock solution of the plant extract was prepared in specified solvent at a concentration of 50 mg/ml. The working concentration of 10 mg/ml solution was prepared in incomplete Dulbecco's Modified Eagle's Medium (DMEM) and filter sterilized for further use in the assays.
Mouse macrophage (RAW 264.7) cells and fibroblast (L929) cells were used in the in vitro assays. These were maintained in DMEM supplemented with 10% fetal calf serum (FCS) at 37° C. in a humidified atmosphere containing 5% CO2/95% air. The cells were sub cultured upon confluence.
Mouse macrophage (RAW 264.7) cells were plated at a cell density of 1×10^5 cells/well in a 96 well micro titer plate. After 24 h of incubation they were treated with filtered extract (200 μg/ml), Lipopolysaccharide (1 μg/ml) or media alone and incubated for a further period of 18-24 h. The supernatants as such or diluted ( 1/10th or 1/20th) were transferred to pre-incubated (24 h) L929 cells ([…]). […]

RAW-264.7 Cells = experiment: Nitric oxide (NO) estimation, nitrite released from mouse macrophage cells; assay type: cell-based; conditions: Table 5, 48 h, LPS 1 μg/ml, control 800 ± 50
Experimental: Macrophages are part of immune system (innate immunity) which phagocytose the intruder organism and kill them by release of toxic Nitric Oxide (NO). In this experiment, the ability of the plant extract to stimulate the macrophages for NO production was measured as nitrite released from mouse macrophage cells. Mouse macrophage cells were plated in 96-well culture plates (1×10^5 cells/well) and incubated for 24 h at 37° C. in a humidified atmosphere containing 5% CO2/95% air. The spent media from each well was aspirated and replenished with fresh media and further incubated for 48 h with desired concentration of extract in presence or in absence of Lipopolysaccharide (LPS 1 μg/ml). NO production in the supernatant was measured by micro plate assay. Cell supernatant was mixed with an equal volume of the Griess reagent (1% sulfanilaminde and 0.1% N-[napthyl]ethylenediamine dihydrochloride in 2.5% H3PO4) at room temperature for 10 min. The absorbance at 540 nm was determined in a microtiter plate reader (Anthos HT II). NO estimation was carried out using standard curve plotted against known quantity of […]. Results presented are in μM concentration obtained from mean OD of triplicate wells of each group.

[6] = system: TNF-α production in RAW-264.7 Cells; experiment: Estimation of TNF-α production by ELISA in macrophage supernatant; assay type: cell-based, mouse; conditions: Table 6; RAW 264.7 supernatant; control 1662.00 ± 3.50
Experimental: (§1) This experiment was carried out to know whether the plant extract has stimulatory effects on the production of proinflammatory cytokines. Mouse macrophage cells, RAW 264.7 were cultured for 48 hours in the presence or in the absence of filtered plant extract. LPS was used as stimulant for proinflammatory cytokines TNF-∝ and IL-6. Supernatant of these samples were harvested immediately for estimations of TNF-∝ and IL-6 by an ELISA as per the manufacturer's protocol and recorded the results as concentrations in pg/ml.

[7] = system: IL-6 production in RAW-264.7 Cells; experiment: Estimation of IL-6 production by ELISA in macrophage supernatant; assay type: cell-based, mouse; conditions: Table 7; RAW 264.7 supernatant; control 542 ± 4
Experimental: as §1

## O=P1(N(CCCl)CCCl)NCCCO1 (stereo not shown) [Cyclophosphamide]
[1]
  Antibody titre: 0.444 ± 0.141

## C[C@H]1N[C@@H](CCCCCCCCCCC2=C[C@@H](CCCCCCCCCC[C@H]3CC[C@@H](O)[C@@H](C)N3)[C@@H]3CCCN3C2)CC[C@H]1O [Juliprosopine]
[2]
  antibacterial activity: exhibiting antibacterial activity

## OC[C@H]1O[C@@H](Oc2cc(O)c3c(c2)O[C@H](c2ccc(O)cc2)[C@H](O)C3)[C@H](O)[C@@H](O)[C@@H]1O [Symposide]
[3]
  antifibrinolytic activity: showed antifibrinolytic activity

## O=C(OCc1cc(O)ccc1O[C@@H]1O[C@H](CO)[C@@H](O)[C@H](O)[C@H]1O)c1ccccc1 [salireposide]
[4]; Ahmad et al. Phytochemistry, 2003
  inhibitory activity against snake venom Phosphodiesterase type I: inhibitory activity

## Lipopolysaccharide [LPS]
[5]
  Proinflammatory Cytokine induced Cell Death (%): 79.0%
RAW-264.7 Cells
  NO Levels: 2862.50 ± 87.50 µM
[6]
  TNF ∝ Levels: 3432.00 ± 140.50 pg/mL
  TNF ∝ Levels (pg/ml): 3432.00 ± 140.50^• pg/ml
[7]
  IL-6 Conc.: 11187 ± 214 pg/mL

## benzoylsalireposide
[4]
  inhibitory activity against snake venom Phosphodiesterase type I: inhibitory activity
